Calls of active or inactive are those of the source.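 How the source made its calls: active means compounds giving half or more protection of infected cells from virus-caused growth loss, again on retest; inactive means the rest.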

This note sets out measurements from PubChem BioAssay AID179 (DTP/NCI, 2004).

The assay has as its system CEM cells HIV-1 protection, formazan growth assay. The experiment in a line: NCI AIDS Antiviral Assay. The following applies: for IC50: measured here: growth of uninfected CEM cells. In a few lines: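 Human CEM cells, uninfected and HIV-1-infected, exposed to five drug concentrations; growth measured by soluble formazan assay and scored as percent protection from infection, with protecting compounds retested.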

What is called EC50 is the concentration needed to bring the measured effect to its halfway point. By IC50 is commonly meant the concentration at which inhibition is half-maximal. A low value points to greater potency in that assay. For `N#Cc1cccc(NC(=O)c2ccc(C(=O)O)c(C(=O)c3ccc(C(=O)O)c(C(=O)Nc4cccc(C#N)c4)c3)c2)c1`, the EC50 is over 170 µM and the half-maximal inhibitory concentration (IC50) was over 170 µM.
With `CCOC(=O)c1c(N)sc2c1C(C(=O)OCC)CCC2` (stereo not drawn), the EC50 is over 200 µM and the concentration for half-maximal inhibition (IC50) is 112 µM.
On to `Nc1c(Cl)ncnc1NCCO`, for which the EC50 is over 200 µM and the IC50 is over 200 µM.
`COc1cc(O)c(C(=O)c2ccccc2)cc1S(=O)(=O)O`: the EC50 is over 776 µM and the concentration for half-maximal inhibition (IC50) was over 776 µM.
For the molecule `CC1(C)OCC(C2OC3OC(C)(C)OC3C2=O)O1` (stereo not drawn), the result was inactive.
Turning to `OCC1OC(n2nc(-c3ccccc3)nc2-c2cnccn2)C(O)C1O` (stereo not drawn), the EC50 is over 200 µM and the concentration for half-maximal inhibition (IC50) is over 200 µM.
Take `CCCC1CC(=O)NC(=O)C1C(=O)OC(C)(C)C` (stereo not drawn): the EC50 is over 200 µM and the IC50 is over 200 µM.
On to `Cc1nn(C(=O)CC(=O)Nc2ccccc2)c(C)c1N=Nc1ccccc1F`, for which the outcome was inactive.
For the molecule `O=C(CCCN1CCC2(CC1)CC(=O)N(N1CCCCCC1)C2=O)c1ccc(F)cc1`, the EC50 is over 200 µM and the IC50 is over 200 µM.
Take `C=C1C[C@@H]2C[C@@H](C)CC(O)[C@]2(CCCNC(=O)CCOCc2ccccc2)C1O` (stereo partly drawn): the outcome was inactive.
On to `COC(=O)c1csnn1`, for which the EC50 is over 1740 µM and the IC50 was over 1740 µM.
For the molecule `CC(=O)NNC(=S)/N=C/c1c(C)[nH]n(-c2ccccc2)c1=O`, the result was inactive.
`CC1=CC(=O)C(=CN2C(=O)/C(=C\c3cccnc3)NC2=S)C(=O)O1`: the EC50 is over 200 µM and the half-inhibitory concentration (IC50) is over 200 µM.
On to `COc1ccc(/C=C/C(=O)NCC(NC(=O)/C=C/c2ccc(OC)c(OC)c2)C(=O)O)cc1OC` (stereo not drawn), for which the EC50 was over 200 µM and the IC50 is over 200 µM.
In the case of `CCN1Cc2c(/C=C/c3ccccc3)nc3ccc(OC)cc3c2N(c2cccc(Cl)c2)C1`, the EC50 is over 41.7 µM and the 50% inhibitory concentration (IC50) is 7.76 µM.
For `Cc1cc(S(=O)(=O)Nc2nnc3c(C(F)(F)F)cc(Cl)cn23)c(S)cc1Cl` the same measures were 166 µM and 170 µM.
Take `COC(=O)CCSC(=O)Nc1ccccc1Cl`: the result was inactive.
Turning to `OCC(CN1CCCCC1)(CN1CCCCC1)CN1CCCCC1`, the EC50 was over 50.1 µM and the concentration for half-maximal inhibition (IC50) was over 50.1 µM.
Turning to `COc1ccc(/C(C)=N\NS(=O)(=O)c2ccc(NC(C)=O)cc2)cc1`, the EC50 is over 182 µM and the 50% inhibitory concentration (IC50) was over 182 µM.
With `CC(=O)Oc1ccc2c(c1)c1c(=O)oc(C)nc1n2Cc1ccccc1`, the EC50 was over 200 µM and the IC50 came to 66.1 µM.
As to `CC(C#N)(CCC(=O)O)N=NC(C)(C#N)CCC(=O)O` (stereo not drawn), the EC50 was over 891 µM and the IC50 was over 891 µM.
As for `Cc1occc1C(=S)Nc1ccc(Cl)c(C(=O)OCC2CC2)c1`, the 50% effective concentration (EC50) is 0.0186 µM and the 50% inhibitory concentration (IC50) was 53.7 µM.
`CCCCCCCCC#CCCCCCCC(F)C(=O)O` (stereo not drawn): the outcome was inactive.
With `Cc1nc2c(C)ccc([N+](=O)[O-])c2c(NCCCN(C)C)c1C`, the EC50 was over 200 µM and the IC50 stood at 69.2 µM.
Turning to `O=S(=O)(O)c1ccc(N=Nc2cc(S(=O)(=O)O)c3ccccc3c2O)c2ccccc12`, the EC50 is over 100 µM and the IC50 was over 100 µM.
For the molecule `CC(=O)C(N)=Nc1ccccc1`, the EC50 is over 1550 µM and the IC50 is over 1550 µM.
Consider `Cc1ccc(NC(=O)CC/C(CC(=O)c2ccc(F)cc2)=N\NC(=O)C(=O)NN)cc1C`, for which the EC50 is over 11.7 µM and the 50% inhibitory concentration (IC50) was over 11.7 µM.
For `CCOC(=O)C1N(S(=O)(=O)c2ccc(C)cc2)CCC12c1ccccc1N(C(C)=O)C2C(/C=C/C(=O)OC)=C/C(=O)OC` (stereo not drawn), the outcome was inactive.
As for `CN(NC(=O)Nc1cccc2ccccc12)c1ccccc1`, the EC50 is over 24.5 µM and the 50% inhibitory concentration (IC50) was over 24.5 µM.
With `COC(=O)C12CCCN1CCC2`, the 50% effective concentration (EC50) was 26.3 µM and the half-inhibitory concentration (IC50) is over 200 µM.
As to `CCOC(=O)c1ccc(CS(=O)(=O)c2ccc(C)cc2)c([N+](=O)[O-])c1`, the EC50 is over 100 µM and the 50% inhibitory concentration (IC50) was over 100 µM.
Take `N#C/C(=C\c1ccccc1)c1ccc(F)cc1F`: the EC50 was over 200 µM and the IC50 turned out to be 37.2 µM.
For `C=C1CCC2CC1C(C(=O)c1c[nH]c3ccccc13)=NC2(C)C` (stereo not drawn), the EC50 was over 407 µM and the half-maximal inhibitory concentration (IC50) was over 407 µM.
Regarding `CCc1cc2c(oc3cc(C)ccc32)c(=O)n1C`, the EC50 was over 200 µM and the half-maximal inhibitory concentration (IC50) is 97.7 µM.
On to `COc1ccc(Br)c(C(=O)N2CCc3ccccc32)c1N`, for which the outcome was inactive.
`Cc1cc(O)cc(O)c1C(=O)O[C@]1(C)C(=O)C=C2C=C(/C=C/C(=O)O)OC=C2C1=O`: the outcome was inactive.
Regarding `CC(=O)OCC1OC(NC(=S)Nc2nc(-c3ccccc3)cc(-c3cc(Cl)ccc3O)n2)C(OC(C)=O)C(OC(C)=O)C1OC(C)=O` (stereo not drawn), the EC50 is over 200 µM and the concentration for half-maximal inhibition (IC50) is 5.13 µM.
In the same order, the values of `OCCN1CCN(CCCN2c3ccccc3Sc3ccc(Cl)cc32)CC1` are over 200 µM and 10 µM.
Consider `NC(N)=Nc1ccc(N)cc1`, for which the outcome was inactive.
For the molecule `COC(=O)C(Cc1ccc(Oc2cc(CC(NC(=O)c3ccccc3)C(=O)OC)ccc2OC)cc1)NC(=O)c1ccccc1` (stereo not drawn), the EC50 is over 200 µM and the IC50 is 16.6 µM.
With `Cc1cn(C2CC(N=[N+]=[N-])C(COP(=O)(OCC(=O)c3ccccc3)OCC(=O)c3ccccc3)O2)c(=O)[nH]c1=O` (stereo not drawn), the 50% effective concentration (EC50) is 0.00741 µM and the concentration for half-maximal inhibition (IC50) stood at 2 µM.
On to `c1ccc(SC2CCCO2)cc1` (stereo not drawn), for which the result was inactive.
On to `O=C(OCCc1ccccc1)c1cc2cc(O)c(O)cc2cn1`, for which the EC50 was over 8.32 µM and the IC50 is over 8.32 µM.
Turning to `CN(CCN1C(=O)c2cccc3cccc(c23)C1=O)CCN1C(=O)c2cccc3cccc(c23)C1=O`, the EC50 is over 26.3 µM and the IC50 amounted to 9.12 µM.
`O=C(CCCN1CCC2(CC1)CC(c1ccccc1)OC2=O)c1ccc(F)cc1` (stereo not drawn): the EC50 is over 200 µM and the IC50 turned out to be 89.1 µM.
As to `CC1=C2OCS(=O)C2C2C(=O)N(c3ccccc3)C(=O)C2C1` (stereo not drawn), the EC50 is over 794 µM and the IC50 came to 501 µM.
With `O=C(NC1=C(Cl)C(=O)c2ccccc2C1=O)C(=O)c1c(O)c2ccccc2oc1=O`, the EC50 is over 117 µM and the IC50 was over 117 µM.
In the case of `CCOC(=O)C1=C(NC)OCC1=O`, the result was inactive.
Take `CC(=O)O[C@H]1CSC[C@@H](OC(C)=O)C1[N+](=O)[O-]` (stereo partly drawn): the EC50 is over 692 µM and the half-inhibitory concentration (IC50) amounted to 33.1 µM.
Consider `COc1cccc(-c2cc(C(=O)Nc3ccc(Cl)cc3)nc(N)n2)c1`, for which the EC50 is over 72.4 µM and the IC50 worked out at 52.5 µM.
As for `CC(=O)N(O)c1ccc(Cl)cc1`, the EC50 was over 200 µM and the IC50 is over 200 µM.
`CN(C)c1nc(=NCc2cccs2)ss1`: the EC50 was over 200 µM and the IC50 amounted to 17.4 µM.
For `CCN(CC)c1ccc2cc(-n3nnc4ccccc43)c(=O)oc2c1` the same measures were over 8.13 µM and over 8.13 µM.
For `C=C(C)CCC1C=[N+]([O-])OC(C)(C)C1(C)C` (stereo not drawn) the same measures were over 200 µM and 107 µM.
In the same order, the values of `N#CCc1n[nH]c(Cc2ccccc2)n1` are over 200 µM and over 200 µM.
